# Patent US20080139638A1, “METHOD OF INCREASING GROWTH HORMONE SECRETION” (priority 2006, published 2008)
# Entries after “also recorded” stand apart in the source; their conditions may differ. Like-named read-outs stand apart in the source and are kept apart here.
# Experiments:
# growth hormone [1] = settings: 5.0 mg oral 60 minutes prior to bicycle exercise at 70% VO2max; cited from earlier work
# growth hormone [2] = settings: no exercise, cited from earlier work
# growth hormone secretion = assay: Serum growth hormone (ELISA/EIA) after oral melatonin supplementation 60 min before a single bout of resistance exercise (leg press); assay type: in vivo, human (healthy males)
# Excerpt: Thirty, healthy males who had partaken in regular resistance training for at least one year prior to the study were selected [n=30(22.72±3.28 years, 180.94±6.24 cm in height, and 82.08±9.18 kg in weight)] served as participants in the study. All of the participants passed a mandatory medical screening and were considered either as low or moderate risk or with no contradictions to exercise as outline by the American College of Sports Medicine (ACSM). Furthermore, the participants had not consumed any nutritional supplements, with the exclusion of vitamins, during a two month period prior the experiment.
# Participants were matched by relative strength level (strength/body weight) and then randomly assigned to one of three different protocols. The supplement protocol consisted of a double-blind with groups receiving either 0.5 mg or 5.0 if melatonin (N-Acetyl-5-methoxytryptamine) or 1.0 mg of dextrose as a placebo. Participants were allowed a light breakfast at 8:00 am, wherein they were asked to record the consumed items, and then were required to fast until 2 pm. Seventy-five minutes prior to each exercise session, (12:30 pm), an intravenous cannula was inserted into a foreman vein. At 60 minutes prior to the exercise session, a baseline blood sample was taken and the participant orally received a supplement of placebo according top that outlined above. During the 60 minutes prior to exercise, the participants were required to rest in a supine position and blood samples were taken every 15 minutes up to the initiation of the resistance exercise. The leg press exercise consisted of 7 sets of 7 slow repetitions at 85% of the weight of the respective participant's one repetition maximum. Each set was preformed over the course of 30 seconds followed by 150 seconds of rest. The entire resistance exercise session was 21 minutes in duration.
# Venous blood samples were obtained into 10 ml vacutainer tubes via a 20 gauge intravenous catheter inserted into a foreman vein after the subcutaneous injection of a topical anesthetic (2% Xylocaine). Following the five hour fast, blood samples were obtained at 15-minute intervals commencing 60 minutes prior to the resistance exercise session and then at 15-minute intervals for 120 minutes following the resistance exercise session. Blood samples were allowed to stand for 10 minutes at room temperature and then centrifuged at 2,400 rpm for 10 minutes. The serum was then separated and stored at (−)20° C. until analysis.
# Using enzyme-linked immunosorbent assays (ELISA), and enzyme-immunosorbent assays (EIA), serum samples were assayed for growth hormone (Diagnostics Systems Laboratories, Webster, Tex.) using a Wallac Victor-1420 microplate reader from Perkin-Elmer Life Sciences. Boston, Mass. at either 450 or 405 nm respectively. An ultra-sensitive assay with a lower detection limit of 0.66 pg/ml was used to determine the levels of growth hormone without any detectable interference of circulation glycoproteins, GH-dependent peptide hormones, or growth hormone binding protein.
# Statistical analyses were performed using factorial analysis of variance (ANOVA) with repeated measures for each criterion value. Pairwise comparisons were used to differentiate significant differences among the three groups. All statistical procedures were performed using SPSS 11.0 software and a probability level of <0.05 was adopted throughout.
# Short half-life hormones which are highly sensitive to diurnal variations, such as growth hormone, display great variability in the baseline values as was observed. As such, peak serum hormone responses before and after resistance exercise were subtracted from the baseline values of each participant in order to determine the increase in the growth hormone resulting from the treatments.
# growth hormone release = settings: cited from earlier work
compound,measurement,setting,value
"COc1ccc2[nH]cc(CCNC(C)=O)c2c1 [melatonin, N-Acetyl-5-methoxytryptamine]","growth hormone compared to placebo, area under the curve",growth hormone [1],significant increases
same,time of growth hormone peak following exercise,growth hormone [1],30 min
same,plasma growth hormone concentrations,growth hormone [2]; 0.5 mg oral,significant increase
same,time of peak plasma growth hormone values,growth hormone [2]; 0.5 mg oral,60 min
same,plasma growth hormone concentrations,growth hormone [2]; 5.0 mg oral,significant increase
same,time of peak plasma growth hormone values,growth hormone [2]; 5.0 mg oral,60 min
same,fold increase in serum growth hormone relative to placebo,"growth hormone secretion; 0.5 mg melatonin oral 60 min prior to exercise, post-exercise period",approximately 3.16 fold
same,serum growth hormone levels compared to placebo (in words),"growth hormone secretion; 0.5 mg melatonin oral, post-workout period",statistically significant (p=0.045) elevations
same,serum growth hormone levels compared to placebo (in words),"growth hormone secretion; 0.5 mg melatonin oral, pre-exercise period",no statistical difference; also recorded: no significant increase
same,increase in growth hormone of the 0.5 mg group compared to the 5.0 mg group (in words),"growth hormone secretion; 0.5 mg vs 5.0 mg melatonin oral, post-exercise",significantly greater increase
same,serum growth hormone levels compared to placebo (in words),"growth hormone secretion; 5.0 mg melatonin oral, post-workout period",statistically significant (p=0.045) elevations
same,serum growth hormone levels compared to placebo (in words),"growth hormone secretion; 5.0 mg melatonin oral, pre-exercise period",increased relative to placebo
same,fold increase in serum growth hormone relative to placebo,"growth hormone secretion; 5.0 mg melatonin oral, pre-exercise period, peak standardized to baseline",~2.35 fold
same,effect on basal growth hormone levels,growth hormone release; 0.4 mg/kg intravenous,have been shown to have an effect
same,effect on basal growth hormone levels,growth hormone release; 1 g oral,have been shown to have an effect
same,effect on the 24-hr profile of growth hormone concentration,"growth hormone release; small doses, less than 2 mg, oral",have not be shown to affect
